Among the data in ChEMBL document CHEMBL5120923, “Tamarixetin Attenuated the Virulence of Staphylococcus aureus by Directly Targeting Caseinolytic Protease P” (J Nat Prod, 2022) are inhibition values, retold here.

For experiment [1], the system named is Staphylococcus aureus. Briefly: Inhibition of Hla protein expression in methicillin-resistant Staphylococcus aureus USA300 at 4 to 64 ug/ml incubated for overnight by western blot analysis. In kind it is functional. As to conditions: dose 4-64 µg/ml, DDE = dose-dependent effect. (In general: A western blot detects proteins with antibodies after separation by electrophoresis.)

Experiment [2] deals with Staphylococcus aureus. Briefly: Inhibition of Hla protein expression in methicillin-resistant Staphylococcus aureus Newman at 4 to 64 ug/ml incubated for overnight by western blot analysis. It is filed as functional. Particulars: dose 4-64 µg/ml, DDE = dose-dependent effect.

Take `COc1ccc(-c2oc3cc(O)cc(O)c3c(=O)c2O)cc1O` [TAMARIXETIN]: the inhibition result in the experiment on Staphylococcus aureus [1] and in the experiment with Staphylococcus aureus [2] was “Dde” throughout.
